Reference: patent US20250236627A1, “CERTAIN OCTAHYDROFURO[3,4- B]PYRAZINES AS GLP-1 RECEPTOR MODULATORS” (ASTRAZENECA AB, priority 2021, published 2025)

Columns and labels:
[1] = biological target: T1, human GLP-1R receptor (Homo sapiens, UniProt P43220, L260F); assay: CHOK1 GLP-1R cAMP Assay; type: cell-based; settings: CHO-K1 cell line stably expressing human GLP-1R; HTRF cAMP detection
T1 construct: expressed in transfected cells; host or cells: CHO-K1 (ATCC CCL-61)
Procedure, shortened: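 CHO-K1 cells, 800/well, stimulated 20 min at room temperature with compound in HEPES pH 7.4/HBSS/0.1% BSA plus IBMX (1 mM in the added buffer). cAMP measured by HTRF competitive immunoassay after ≥1 h, converted to pM via standard curve. EC50 from 4-parameter logistic fit; % effect relative to saturating GLP1(7-36)NH2.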

[2] = biological target: T2, endogenous human glucagon-like peptide 1 receptor (GLP-1R) (Homo sapiens, UniProt P43220); assay: EndoC cAMP Accumulation Assay; type: cell-based; settings: EndoC-βH1 human pancreatic β cell line; HTRF cAMP assay
T2 construct: endogenous human glucagon-like peptide 1 receptor (GLP-1R) in a pancreatic insulinoma cell line; host or cells: EndoC-βH1 human pancreatic β cell line
Procedure, shortened: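 Thawed EndoC-βH1 cells (3000 per well) were stimulated for 30 min at room temperature in HBSS/25 mM HEPES pH 7.4, 0.1% BSA and 0.5 mM IBMX. cAMP was measured by HTRF competitive immunoassay after 1 h. Responses were fitted by 4-parameter logistic as % activation relative to maximal GIP (82.5 nM), with basal cAMP as zero.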

[3] = biological target: T3, human phosphodiesterase-3A (Homo sapiens, UniProt Q14432); assay: PDE3 Assay; type: biochemical; settings: human recombinant enzyme expressed in Sf9 cells; formation of 5′AMP from cAMP
T3 construct: host or cells: Sf9 cells
Method: Evaluation of the effects of compounds on the activity of the human phosphodiesterase-3A is quantified by measuring the formation of 5′AMP from cAMP using a human recombinant enzyme expressed in Sf9 cells.
The test compound, reference compound or water (control) are added to a buffer containing 40 mM Tris/HCl (pH 7.4) and 8 mM MgCl2, 450 nM cAMP and 0.25 μCi [^3H]cAMP.
Thereafter, the reaction is initiated by addition of the enzyme (about 1 U) and the mixture is incubated for 20 min at 22° C.
For basal control measurements, the enzyme is omitted from the reaction mixture.
Following incubation SPA beads are added. After 30 min at 22° C. under shaking, the amount of [^3H]5′AMP is quantified with a scintillation counter (Topcount, Packard).
The results are expressed as a percent inhibition of the control enzyme activity. The standard inhibitory reference compound is milrinone (CAS number 78415-72-2), which is tested in each experiment at several concentrations to obtain an inhibition curve from which its IC50 value is calculated.

T3 sequence (Q14432 whole entry): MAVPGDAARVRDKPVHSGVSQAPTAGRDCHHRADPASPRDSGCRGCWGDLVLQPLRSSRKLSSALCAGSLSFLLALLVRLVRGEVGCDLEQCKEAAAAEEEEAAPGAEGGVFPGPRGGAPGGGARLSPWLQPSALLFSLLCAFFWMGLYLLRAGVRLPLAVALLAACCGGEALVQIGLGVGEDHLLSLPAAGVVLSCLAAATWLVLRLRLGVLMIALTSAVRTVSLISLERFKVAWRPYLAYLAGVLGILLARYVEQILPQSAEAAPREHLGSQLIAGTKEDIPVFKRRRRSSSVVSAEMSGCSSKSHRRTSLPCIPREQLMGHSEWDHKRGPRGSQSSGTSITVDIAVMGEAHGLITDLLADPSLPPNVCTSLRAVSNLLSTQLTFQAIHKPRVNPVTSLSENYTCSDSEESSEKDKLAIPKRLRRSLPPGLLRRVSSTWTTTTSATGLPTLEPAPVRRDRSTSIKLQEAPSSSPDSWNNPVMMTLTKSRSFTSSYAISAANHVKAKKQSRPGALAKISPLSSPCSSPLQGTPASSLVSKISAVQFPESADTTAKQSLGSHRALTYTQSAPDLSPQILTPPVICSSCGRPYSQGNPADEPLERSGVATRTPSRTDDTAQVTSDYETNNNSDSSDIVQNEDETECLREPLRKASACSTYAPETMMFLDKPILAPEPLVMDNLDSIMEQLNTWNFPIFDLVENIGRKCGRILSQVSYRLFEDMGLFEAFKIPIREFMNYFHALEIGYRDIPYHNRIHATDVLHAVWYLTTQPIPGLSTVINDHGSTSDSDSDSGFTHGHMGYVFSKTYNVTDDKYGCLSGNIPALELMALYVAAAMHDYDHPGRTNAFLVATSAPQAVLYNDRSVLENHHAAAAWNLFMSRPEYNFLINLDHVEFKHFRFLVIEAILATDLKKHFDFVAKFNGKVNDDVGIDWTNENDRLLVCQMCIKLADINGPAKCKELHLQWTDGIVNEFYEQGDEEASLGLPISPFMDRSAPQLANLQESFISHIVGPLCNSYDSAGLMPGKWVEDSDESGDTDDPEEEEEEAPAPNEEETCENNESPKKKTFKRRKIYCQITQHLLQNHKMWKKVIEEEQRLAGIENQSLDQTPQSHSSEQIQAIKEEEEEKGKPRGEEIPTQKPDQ
T1 sequence (P43220 24-463 L260F): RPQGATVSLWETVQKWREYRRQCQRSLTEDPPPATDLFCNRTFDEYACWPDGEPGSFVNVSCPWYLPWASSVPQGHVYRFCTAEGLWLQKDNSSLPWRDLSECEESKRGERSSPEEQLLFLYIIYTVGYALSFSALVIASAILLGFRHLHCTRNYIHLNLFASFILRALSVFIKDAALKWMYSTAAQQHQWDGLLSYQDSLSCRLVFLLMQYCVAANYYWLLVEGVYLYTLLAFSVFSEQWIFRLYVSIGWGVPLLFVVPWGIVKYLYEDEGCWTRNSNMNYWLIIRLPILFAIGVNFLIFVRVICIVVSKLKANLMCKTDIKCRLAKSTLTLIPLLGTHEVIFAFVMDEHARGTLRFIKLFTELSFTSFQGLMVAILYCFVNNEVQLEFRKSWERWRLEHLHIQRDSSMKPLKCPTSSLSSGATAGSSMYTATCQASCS
T2 sequence (P43220 24-463): as the sequence (P43220 24-463 L260F) above, with F237L counted along it

COc1cc(C(=O)O)cc2c1nc(CN1CCN(c3cccc4c3O[C@@](C)(c3ccc(Cl)cn3)O4)[C@@H]3COC[C@@H]31)n2C[C@@H]1CCO1 (relative stereo) [Example 1b, 2-((4aR*,7aS*)-4-((R*)-2-(5-Chloropyridin-2-yl)-2-methylbenzo[d][1,3]dioxol-4-yl)hexahydrofuro[3,4-b]pyrazin-1(2H)-yl)methyl)-4-methoxy-1-(((S)-oxetan-2-yl)methyl)-1H-benzo[d]imidazole-6-carboxylic acid]
EC50 [1]: 1.8 nM | EC50 [2]: 3.1 nM | IC50 [3]: > 100 µM

COc1cc(C(=O)O)cc2c1nc(CN1CCN(c3cccc4c3O[C@@](C)(c3ccc(Cl)cn3)O4)[C@@H]3COC[C@@H]31)n2C[C@@H]1CCCO1 (relative stereo) [Example 2a, 2-((4aR*,7aS*)-4-((R*)-2-(5-Chloropyridin-2-yl)-2-methylbenzo[d][1,3]dioxol-4-yl)hexahydrofuro[3,4-b]pyrazin-1(2H)-yl)methyl)-4-methoxy-1-(((S)-tetrahydrofuran-2-yl)methyl)-1H-benzo[d]imidazole-6-carboxylic acid]
EC50 [1]: 3.8 nM | EC50 [2]: 3.1 nM | IC50 [3]: > 100 µM

C[C@]1(c2ccc(Cl)cn2)Oc2cccc(N3CCN(Cc4nc5ccc(C(=O)O)cc5n4C[C@@H]4CCO4)[C@H]4COC[C@H]43)c2O1 (single isomer, unassigned) [Example 5b, 2-(((4aR*,7aS*)-4-((R*)-2-(5-Chloropyridin-2-yl)-2-methylbenzo[d][1,3]dioxol-4-yl)hexahydrofuro[3,4-b]pyrazin-1(2H)-yl)methyl)-1-(((S)-oxetan-2-yl)methyl)-1H-benzo[d]imidazole-6-carboxylic acid]
EC50 [1]: 2.2 nM | EC50 [2]: 9.5 nM | IC50 [3]: > 100 µM

C[C@]1(c2ccc(Cl)cc2F)Oc2cccc(N3CCN(Cc4nc5c(Cl)cc(C(=O)O)cc5n4C[C@@H]4CCO4)[C@H]4COC[C@H]43)c2O1 (single isomer, unassigned) [Example 15c, 4-Chloro-2-(((4aR*,7aS*)-4-((R*)-2-(4-chloro-2-fluorophenyl)-2-methylbenzo[d][1,3]dioxol-4-yl)hexahydrofuro[3,4-b]pyrazin-1(2H)-yl)methyl)-1-(((S)-oxetan-2-yl)methyl)-1H-benzo[d]imidazole-6-carboxylic acid]
EC50 [1]: 150 nM | EC50 [2]: 560 nM

C[C@]1(c2ccc(Cl)cc2F)Oc2cccc(N3CCN(Cc4nc5c(Cl)cc(C(=O)O)cc5n4C[C@@H]4CCO4)[C@H]4COC[C@H]43)c2O1 (single isomer, unassigned) [Example 15d, 4-Chloro-2-(((4aR*,7aS*)-4-((R*)-2-(4-chloro-2-fluorophenyl)-2-methylbenzo[d][1,3]dioxol-4-yl)hexahydrofuro[3,4-b]pyrazin-1(2H)-yl)methyl)-1-(((S)-oxetan-2-yl)methyl)-1H-benzo[d]imidazole-6-carboxylic acid]
EC50 [1]: 190 nM | EC50 [2]: 160 nM

C[C@]1(c2ccc(Cl)cc2F)Oc2cccc(N3CCN(Cc4nc5c(F)cc(C(=O)O)cc5n4C[C@@H]4CCO4)[C@H]4COC[C@H]43)c2O1 (single isomer, unassigned) [Example 16a, 2-(((4aR*,7aS*)-4-((R*)-2-(4-Chloro-2-fluorophenyl)-2-methylbenzo[d][1,3]dioxol-4-yl)hexahydrofuro[3,4-b]pyrazin-1(2H)-yl)methyl)-4-fluoro-1-(((S)-oxetan-2-yl)methyl)-1H-benzo[d]imidazole-6-carboxylic acid]
EC50 [1]: 1.2 nM | EC50 [2]: 2.3 nM

C[C@]1(c2ccc(Cl)cc2F)Oc2cccc(N3CCN(Cc4nc5c(F)cc(C(=O)O)cc5n4C[C@@H]4CCO4)[C@H]4COC[C@H]43)c2O1 (single isomer, unassigned) [Example 16b, 2-(((4aR*,7aS*)-4-((R*)-2-(4-Chloro-2-fluorophenyl)-2-methylbenzo[d][1,3]dioxol-4-yl)hexahydrofuro[3,4-b]pyrazin-1(2H)-yl)methyl)-4-fluoro-1-(((S)-oxetan-2-yl)methyl)-1H-benzo[d]imidazole-6-carboxylic acid]
EC50 [1]: 120 nM | EC50 [2]: 270 nM

C[C@]1(c2ccc(Cl)cc2F)Oc2cccc(N3CCN(Cc4nc5c(F)cc(C(=O)O)cc5n4C[C@@H]4CCO4)[C@H]4COC[C@H]43)c2O1 (single isomer, unassigned) [Example 16c, 2-(((4aR*,7aS*)-4-((R*)-2-(4-Chloro-2-fluorophenyl)-2-methylbenzo[d][1,3]dioxol-4-yl)hexahydrofuro[3,4-b]pyrazin-1(2H)-yl)methyl)-4-fluoro-1-(((S)-oxetan-2-yl)methyl)-1H-benzo[d]imidazole-6-carboxylic acid]
EC50 [1]: 170 nM | EC50 [2]: 440 nM

C[C@]1(c2ccc(Cl)cc2F)Oc2cccc(N3CCN(Cc4nc5c(F)cc(C(=O)O)cc5n4C[C@@H]4CCO4)[C@H]4COC[C@H]43)c2O1 (single isomer, unassigned) [Example 16d, 2-(((4aR*,7aS*)-4-((R*)-2-(4-Chloro-2-fluorophenyl)-2-methylbenzo[d][1,3]dioxol-4-yl)hexahydrofuro[3,4-b]pyrazin-1(2H)-yl)methyl)-4-fluoro-1-(((S)-oxetan-2-yl)methyl)-1H-benzo[d]imidazole-6-carboxylic acid]
EC50 [1]: 160 nM | EC50 [2]: 270 nM

Cc1nccn1CCn1c(CN2CCN(c3cccc4c3O[C@@](C)(c3ccc(Cl)cc3F)O4)[C@@H]3COC[C@@H]32)nc2c(F)cc(C(=O)O)cc21 (single isomer, unassigned) [Example 17]
EC50 [1]: 14 nM | EC50 [2]: 4.5 nM

Cc1nccn1CCn1c(CN2CCN(c3cccc4c3O[C@@](C)(c3ccc(Cl)cc3F)O4)[C@@H]3COC[C@@H]32)nc2c(Cl)cc(C(=O)O)cc21 (single isomer, unassigned) [Example 18]
EC50 [1]: 26 nM | EC50 [2]: 6.1 nM

C[C@]1(c2ccc(Cl)cc2F)Oc2cccc(N3CCN(Cc4nc5c(Cl)cc(C(=O)O)cc5n4Cc4cocn4)[C@H]4COC[C@H]43)c2O1 (single isomer, unassigned) [Example 19]
EC50 [1]: 25 nM | EC50 [2]: 7.4 nM

C[C@]1(c2ccc(Cl)cc2F)Oc2cccc(N3CCN(Cc4nc5c(F)cc(C(=O)O)cc5n4Cc4cocn4)[C@H]4COC[C@H]43)c2O1 (single isomer, unassigned) [Example 20a]
EC50 [1]: 150 nM | EC50 [2]: 410 nM

C[C@]1(c2ccc(Cl)cc2F)Oc2cccc(N3CCN(Cc4nc5c(F)cc(C(=O)O)cc5n4Cc4cocn4)[C@H]4COC[C@H]43)c2O1 (single isomer, unassigned) [Example 20b]
EC50 [1]: 7.2 nM | EC50 [2]: 10 nM

C[C@]1(c2ccc(Cl)cn2)Oc2cccc(N3CCN(Cc4nc5c(F)cc(C(=O)O)cc5n4CC4(C#N)CC4)[C@H]4COC[C@H]43)c2O1 (single isomer, unassigned) [Example 22b]
EC50 [1]: 170 nM | EC50 [2]: 240 nM

C[C@]1(c2ccc(Cl)cn2)Oc2cccc(N3CCN(Cc4nc5c(F)cc(C(=O)O)cc5n4CC4(C#N)CC4)[C@H]4COC[C@H]43)c2O1 (single isomer, unassigned) [Example 22c]
EC50 [1]: 140 nM | EC50 [2]: 580 nM

C[C@]1(c2ccc(Cl)cn2)Oc2cccc(N3CCN(Cc4nc5c(Cl)cc(C(=O)O)cc5n4CC4(C#N)CC4)[C@H]4COC[C@H]43)c2O1 (single isomer, unassigned) [Example 23b]
EC50 [1]: 77 nM | EC50 [2]: 190 nM

C[C@]1(c2ccc(Cl)cn2)Oc2cccc(N3CCN(Cc4nc5c(Cl)cc(C(=O)O)cc5n4CC4(CC#N)CC4)[C@H]4COC[C@H]43)c2O1 (single isomer, unassigned) [Example 24]
EC50 [1]: 3.1 nM | EC50 [2]: 4.3 nM

C[C@]1(c2ccc(Cl)cn2)Oc2cccc(N3CCN(Cc4nc5ccc(C(=O)O)cc5n4CC4(C#N)CC4)[C@H]4COC[C@H]43)c2O1 (single isomer, unassigned) [Example 26]
EC50 [1]: 3.6 nM | EC50 [2]: 11 nM

C[C@]1(c2ccc(Cl)cn2)Oc2cccc(N3CCN(Cc4nc5c(Cl)cc(C(=O)O)cc5n4CCn4cccn4)[C@H]4COC[C@H]43)c2O1 (single isomer, unassigned) [Example 27]
EC50 [1]: 81 nM | EC50 [2]: 20 nM

N#Cc1ccc(COc2cccc(C3CCN(Cc4nc5ccc(C(=O)O)cc5n4C[C@@H]4CCO4)CC3)n2)c(F)c1 [Ref Comp B, reference compound]
IC50 [3]: 11 µM
